Assay results taken from patent publication US20130156845A1, “LIPID FORMULATED SINGLE STRANDED RNA” (ALNYLAM PHARMACEUTICALS, INC., priority 2010, published 2013).
Read-outs that look alike come from different tables or passages of the source. Strand notation (5' to 3'): a small letter for the sugar, then the base; units joined by * are phosphorothioate-linked, units joined directly phosphodiester-linked; [ ] holds rarer units or linkages, { } end groups; capitals alone tell only the bases. [DMAEAc-N] = nucleoside with 2'-O-dimethylaminoethyl acetamide (DMAEAc) sugar (N: the base); [R5Me] = (R)-5'-methyl-2'-deoxythymidine; e = 2'-O-(2-methoxyethyl) (MOE); m = 2'-O-methyl; {P} = phosphate; f = 2'-fluoro

Experiments:
[1] = Modified ssRNA 5′-phosphate serum stability assay (Example 60); type: in vitro ADME; details: full length ssRNA with 5′-terminal phosphate; 10 μM in 95% fresh mouse serum, 37° C., LC/MS
Excerpt: A serum stability assay is useful for evaluating the stability of oligomeric compounds in the presences of nucleases and other enzymes found in serum. For example, the stability of a 5′-terminal phosphate group of an oligomeric compound can be evaluated by assessing the ability of the 5′-terminal phosphate group to remain attached to the oligomeric compound in the presence of serum. Accordingly, a serum stability assay was employed to evaluate the stability of modified ssRNAs having a 5′-terminal phosphate group.
Various modified ssRNAs, shown below, having a 5′-terminal phosphate group (10 μM) were dissolved in 95% of fresh mouse serum and incubated at 37° C. Aliquots of serum (100 μL) were removed after 0, 1, 3, 6 or 24 hours of incubation times. The serum samples were immediately quenched and snap frozen. The samples were extracted by the strong anion exchange (SAX) and octadecylsilyl (C-18) columns. For each incubation time, the amount of full length modified ssRNA having a 5′-terminal phosphate group was determined by LC/MS, and the half-life of the full length modified ssRNA having a 5′ terminal phosphate group was calculated. The results are expressed as half-time (T1/2) in the table below.

human PTEN = assay: PTEN expression in HeLa cells, ssRNAs vs siRNAs (Example 62); type: cell-based
Method: A series of 5′ and 2′ bis-substituted modified oligomeric compounds were prepared as single strand RNAs (ssRNAs). The antisense (AS) strands listed below were designed to target human PTEN, and each was also assayed as part of a duplex with the same sense strand (ISIS 341401, shown below) for their ability to reduce PTEN expression levels. HeLa cells were treated with the single stranded or double stranded oligomeric compounds created with the antisense compounds shown below using methods described herein. The IC50's were calculated using the linear regression equation generated by plotting the normalized mRNA levels to the log of the concentrations used.

[2] = Phosphate stability in mouse serum (Example 68)
Method: Single-stranded oligomeric compounds were tested for stability in mouse serum.

PTEN [3] = assay: PTEN mRNA reduction in HeLa cells, dose response (Example 69); type: cell-based, human; details: percent inhibition of PTEN mRNA, 0.067-50 nM
Method: (§1) In accordance with the present disclosure, oligomeric compounds were synthesized and tested for their ability to reduce PTEN expression over a range of doses. Human HeLa cells were treated with either ISIS 447581, 467074, 418046 or 467076. A dose comparison was evaluated with dose concentrations of 0.067, 0.2, 0.62, 1.9, 5.5, 16.7 and 50 nM using methods described herein. Expression levels of PTEN were determined using real-time PCR and normalized to RIBOGREEN™ using methods described herein. The percent inhibition of PTEN mRNA was determined and the resulting dose-response curves were used to determine the EC50. The EC50s are listed below.

PTEN [4] = assay: Liver PTEN mRNA in Balb/c mice, unformulated oligomeric compounds (Example 70); type: in vivo, mouse; details: 48 h; for inhibition of PTEN: 75 mg/kg, liver; for % inhibition: liver PTEN mRNA, single i.p. dose 75 mg/kg, normalized to saline control
Method: Six-week-old male Balb/c mice (Jackson Laboratory, Bar Harbor, Me.) were injected intraperitenially with a single dose of 75 mg/kg of one of the three oligomeric compounds above or with saline control. Each dose group consisted of four animals. The mice were sacrificed 48 hours following administration. Livers were collected and PTEN mRNA levels were assessed using real-time PCR and RIBOGREEN® RNA quantification reagent (Molecular Probes, Inc. Eugene, Oreg.) according to standard protocols. PTEN mRNA levels were determined relative to total RNA (using Ribogreen), and normalized to the saline-treated control. Results are listed below as the average % inhibition of PTEN mRNA expression for each treatment group, normalized to saline-injected control.

PTEN [5] = assay: In vivo evaluation of ssRNA formulated in lipid particle LNP06, liver PTEN mRNA (Example 77); parameters: species or system mouse; details: ssRNA formulated in LNP06, 4.5 mg/kg tail vein, C57BL/6 mice, liver PTEN mRNA normalized to GAPDH, 2 days post injection
Method: In accordance with the present disclosure, oligomeric compounds were synthesized and tested for their ability to reduce PTEN. C57BL/6 mice (Charles River Labs, MA) received either saline or LNP formulated single stranded RNA via tail vein injection at a volume of 0.01 mL/g and the single stranded RNA dose is 4.5 mg/kg. 25 groups of female mice and 9 modified ssRNAs targeting PTEN were formulated in LNP06 and tested. To determine liver mRNA levels of PTEN, 2 days post injection, animals were sacrificed and livers were harvested and snap frozen in liquid nitrogen. Liver lysates were prepared from the frozen tissues and liver mRNA levels of PTEN normalized to GAPDH were quantified using a branched DNA assay (QuantiGene Assay, Panomics, Calif.).

[6] = In vivo stability: tissue level of intact compound (Example 71)
Method: The in vivo stability of the three oligomeric compounds in Example 70 was evaluated. The tissue samples were obtained from the animals in which PTEN was assessed. […] Quantitative analysis of the oligonucleotides standard were performed by extracted ion chromatograms in the most abundant charge state (−4) using Chemstation software.

PTEN [7] = assay: PTEN mRNA reduction in HeLa cells, dose response (Example 72); type: cell-based, human; details: percent inhibition of PTEN mRNA, 0.167-50 nM
Method: as §1, with “the following oligomeric compounds.” for “either ISIS 447581, 467074, 418046 or 467076.”, “0.167, 0.5, 1.5, 5, 15” for “0.067, 0.2, 0.62, 1.9, 5.5, 16.7”, “IC50.” for “EC50.”, “IC50s” for “EC50s”

A549 cells = assay: MicroRNA mimics: cell cycle assay; type: cell-based; details: RNAIMAX transfection, 0.1-100 nM, nocodazole, propidium iodide flow cytometry
Method: A cell cycle assay was used to evaluate the activity of microRNA mimics. A549 cells were plated at a density of approximately 45,000 cells per well of a 24-well plate. The following day, cells were transfected with microRNA mimics and control oligomeric compounds, using RNAIMAX as the transfection reagent. Oligomeric compounds were tested at concentrations ranging from 0.1 nM to 100 nM. Control oligomeric compounds were also tested. Approximately 24 hours following transfection, nocodazole was added to the cells at a concentration ranging from 0.5 to 2.0 μg/ml. Approximately 16 hours later, the cells were harvested, washed, ethanol-fixed and stained with propidium iodide. Cells cycle profiles were generated by subjecting the stained cells to flow cytometry (FACSCAN).

[8] = antisense strand duplexed with sense strand ISIS 341401, PTEN mRNA, read-out: EC50 (nM) siRNA
[9] = single stranded antisense compound, PTEN mRNA, read-out: EC50 (nM) ssRNA
[10] = full compound with intact phosphorous moiety, first table
[11] = Dose @ 75 mg/kg (48 h time point)

Row | Substance | T1/2 [1] [h] | EC50 (human PTEN; [8]) [nM] | EC50 (human PTEN; [9]) [nM] | EC50 (PTEN [3]) [nM] | inhibition of PTEN (PTEN [4]) | % inhibition (PTEN [4]) [%] | % Kd (PTEN [5]) [%] | further results
1 | P-TRUfGfUfCfUfCfUfGfGfUfCfCfUfUfAfCfUfUfAeAe (antisense TUGUCUCUGGUCCUUACUUAA; sugars from the 5' end [R5Me]1 f18 e2, 5' {P}, backbone not given here) [ISIS 432356] | 8.7 | 0.7 | 3 | – | – | – | – | T1/2 full length [2, 10]: 8.7 h
2 | P-TScUfGmUfCmUfCmUfGmGfUmCfCmUfUmAfCmUfUmAeAe (antisense TUGUCUCUGGUCCUUACUUAA; 5'-phosphate, 2'-F/2'-OMe, MOE modifications, chemistry not fully specified) [ISIS 467074] | – | 0.1 | 2.5 | 2.5 | lowest amount of PTEN reduction | 11 | 52 | compound lacking the 5′-phosphate in tissue ([6]; 75 mg/kg, 48 h): detected; level of intact compound in tissue ([6]; 75 mg/kg, 48 h): not detected; Tissue Level of intact compound (μg/g) [6, 11]: none detected
3 | P-TdUfGfUfCfUfCfUfGfGfUfCfCfUfUfAfCfUfUfAeAe (antisense {P}-[DMAEAc-T]fUfGfUfCfUfCfUfGfGfUfCfCfU*fU*fA*fC*fU*fU*eA*eA) [ISIS 422391] | 6.5 | 0.5 | 5 | – | – | – | – | T1/2 full length ([2]; four compounds tested separately, second table): 3.7 h; T1/2 full length [2, 10]: 6.5 h
4 | P-TdUfGmUfCmUfCmUfGmGfUmCfCmUfUmAfCmUfUmAeAe (antisense TUGUCUCUGGUCCUUACUUAA; 5'-phosphate, chemical modifications, chemistry not fully specified) [ISIS 435397, modified ssRNA targeting PTEN] | – | 0.4 | 2 | – | – | – | 44 | IC50 (PTEN [7]): 2 nM
5 | P-USfUfGfUfCfUfCfUfGfGfUfCfCfUfUfAfCfUfUf (antisense UUGUCUCUGGUCCUUACUU; 5'-phosphate, 2'-F, phosphorothioate, chemistry not fully specified) [ISIS 398701, modified ssRNA targeting PTEN] | 18.2 | – | – | – | – | – | – | –
6 | P-UmAfGfCfAfGfCfAfCmGmUfAfAmAmUfAfUfUfGfGmCmGmAeAe [ss miR-16] | – | – | – | – | – | – | – | cell cycle phenotype (A549 cells): blocking cells in the G1 phase of the cell cycle
7 | P-UmUfGmUfCmUfCmUfGmGfUmCfCmUfUmAfCmUfUmAeAe (antisense UUGUCUCUGGUCCUUACUUAA; sugars from the 5' end mfmfmfmfmfmfmfmfmfmee, 5' {P}, backbone not given here) [ISIS 418046, modified ssRNA targeting PTEN] | – | 0.2 | 2 | 0.83 | – | – | – | –
8 | Py-^meUmUfGmUfCmUfCmUfGmGfUmCfCmUfUmAfCmUfUmAeAe (antisense UUGUCUCUGGUCCUUACUUAA; 5'-methylenephosphonate, 2'-F/2'-OMe, MOE, chemistry not fully specified) [ISIS 467076] | – | 0.05 | 6 | 6 | smaller inhibition of PTEN | 16 | 34 | level of intact compound in tissue ([6]; 75 mg/kg, 48 h): present at a lower concentration; Tissue Level of intact compound [6, 11]: 22.5 µg/g
9 | ^meCeTeGe^meCeTeAG^meC^meCT^meCTGGATeTeTeGeAe [ISIS 116847, reference compound] | – | – | – | – | potent inhibitor of PTEN | 76 | – | –
10 | ds miR-16: double-stranded miR-16 mimic: UAGCAGCACGUAAAUAUUGGCG (SEQ 21) with AAAGCGUCGUGCAUUUAUAACC (SEQ 22) (chain 2 CCAAUAUUUACGUGCUGCGAAA; listed as RNA, chemistry not given here) [reference compound] | – | – | – | – | – | – | – | cell cycle phenotype (A549 cells): blocked cells in the G1 phase of the cell cycle
